System: blastopore upper lip of early gastrula of a Xenopus
Assay: Tissue differentiation of blastopore upper lip treated with retinoic acid for three hours, light microscopy
Details: treated 3 hours, cultured 10 days

CC1=C(/C=C/C(C)=C/C=C/C(C)=C/C(=O)O)C(C)(C)CCC1 [Retinoic acid, retinoic acid]
Atypical epidermis differentiated, specimens (%) (10^−3 M, 12 specimens): 0 (0) | Cartilage differentiated, specimens (%) (10^−3 M, 12 specimens): 0 (0) | Cement gland differentiated, specimens (%) (10^−3 M, 12 specimens): 0 (0) | Coelomic epithelium differentiated, specimens (%) (10^−3 M, 12 specimens): 6 (50) | Ear vesicle differentiated, specimens (%) (10^−3 M, 12 specimens): 0 (0) | Epidermis differentiated, specimens (%) (10^−3 M, 12 specimens): 10 (83) | Eye or its fragments differentiated, specimens (%) (10^−3 M, 12 specimens): 0 (0) | Gastric gland differentiated, specimens (%) (10^−3 M, 12 specimens): 0 (0) | Hemocyte differentiated, specimens (%) (10^−3 M, 12 specimens): 0 (0) | Intestinal epithelium differentiated, specimens (%) (10^−3 M, 12 specimens): 12 (100) | Mesenchyme differentiated, specimens (%) (10^−3 M, 12 specimens): 12 (100) | Muscle differentiated, specimens (%) (10^−3 M, 12 specimens): 0 (0) | Neural tissue differentiated, specimens (%) (10^−3 M, 12 specimens): 0 (0) | Notochord differentiated, specimens (%) (10^−3 M, 12 specimens): 11 (92) | Pancreas differentiated, specimens (%) (10^−3 M, 12 specimens): 11 (92) | Pharyngeal epithelium differentiated, specimens (%) (10^−3 M, 12 specimens): 10 (83) | Pronephros differentiated, specimens (%) (10^−3 M, 12 specimens): 0 (0) | Yolk-rich cell differentiated, specimens (%) (10^−3 M, 12 specimens): 11 (92) | Atypical epidermis differentiated, specimens (%) (10^−4 M, 35 specimens): 0 (0) | Cartilage differentiated, specimens (%) (10^−4 M, 35 specimens): 0 (0) | Cement gland differentiated, specimens (%) (10^−4 M, 35 specimens): 0 (0) | Coelomic epithelium differentiated, specimens (%) (10^−4 M, 35 specimens): 5 (14) | Ear vesicle differentiated, specimens (%) (10^−4 M, 35 specimens): 0 (0) | Epidermis differentiated, specimens (%) (10^−4 M, 35 specimens): 8 (23) | Eye or its fragments differentiated, specimens (%) (10^−4 M, 35 specimens): 0 (0) | Gastric gland differentiated, specimens (%) (10^−4 M, 35 specimens): 0 (0) | Hemocyte differentiated, specimens (%) (10^−4 M, 35 specimens): 0 (0) | Intestinal epithelium differentiated, specimens (%) (10^−4 M, 35 specimens): 34 (97) | Mesenchyme differentiated, specimens (%) (10^−4 M, 35 specimens): 32 (91) | Muscle differentiated, specimens (%) (10^−4 M, 35 specimens): 7 (20) | Neural tissue differentiated, specimens (%) (10^−4 M, 35 specimens): 0 (0) | Notochord differentiated, specimens (%) (10^−4 M, 35 specimens): 33 (94) | Pancreas differentiated, specimens (%) (10^−4 M, 35 specimens): 25 (71) | Pharyngeal epithelium differentiated, specimens (%) (10^−4 M, 35 specimens): 21 (60) | Pronephros differentiated, specimens (%) (10^−4 M, 35 specimens): 0 (0) | Yolk-rich cell differentiated, specimens (%) (10^−4 M, 35 specimens): 29 (83) | Atypical epidermis differentiated, specimens (%) (10^−5 M, 35 specimens): 0 (0) | Cartilage differentiated, specimens (%) (10^−5 M, 35 specimens): 3 (9) | Cement gland differentiated, specimens (%) (10^−5 M, 35 specimens): 0 (0) | Coelomic epithelium differentiated, specimens (%) (10^−5 M, 35 specimens): 5 (14) | Ear vesicle differentiated, specimens (%) (10^−5 M, 35 specimens): 0 (0) | Epidermis differentiated, specimens (%) (10^−5 M, 35 specimens): 13 (37) | Eye or its fragments differentiated, specimens (%) (10^−5 M, 35 specimens): 0 (0) | Gastric gland differentiated, specimens (%) (10^−5 M, 35 specimens): 9 (26) | Hemocyte differentiated, specimens (%) (10^−5 M, 35 specimens): 0 (0) | Intestinal epithelium differentiated, specimens (%) (10^−5 M, 35 specimens): 33 (94) | Mesenchyme differentiated, specimens (%) (10^−5 M, 35 specimens): 20 (57) | Muscle differentiated, specimens (%) (10^−5 M, 35 specimens): 4 (11) | Neural tissue differentiated, specimens (%) (10^−5 M, 35 specimens): 1 (3) | Notochord differentiated, specimens (%) (10^−5 M, 35 specimens): 25 (71) | Pancreas differentiated, specimens (%) (10^−5 M, 35 specimens): 15 (43) | Pharyngeal epithelium differentiated, specimens (%) (10^−5 M, 35 specimens): 19 (54) | Pronephros differentiated, specimens (%) (10^−5 M, 35 specimens): 12 (34) | Yolk-rich cell differentiated, specimens (%) (10^−5 M, 35 specimens): 30 (86) | Atypical epidermis differentiated, specimens (%) (10^−6 M, 35 specimens): 0 (0) | Cartilage differentiated, specimens (%) (10^−6 M, 35 specimens): 22 (63) | Cement gland differentiated, specimens (%) (10^−6 M, 35 specimens): 0 (0) | Coelomic epithelium differentiated, specimens (%) (10^−6 M, 35 specimens): 12 (34) | Ear vesicle differentiated, specimens (%) (10^−6 M, 35 specimens): 0 (0) | Epidermis differentiated, specimens (%) (10^−6 M, 35 specimens): 34 (97) | Eye or its fragments differentiated, specimens (%) (10^−6 M, 35 specimens): 0 (0) | Gastric gland differentiated, specimens (%) (10^−6 M, 35 specimens): 1 (3) | Hemocyte differentiated, specimens (%) (10^−6 M, 35 specimens): 0 (0) | Intestinal epithelium differentiated, specimens (%) (10^−6 M, 35 specimens): 4 (11) | Mesenchyme differentiated, specimens (%) (10^−6 M, 35 specimens): 35 (100) | Muscle differentiated, specimens (%) (10^−6 M, 35 specimens): 20 (57) | Neural tissue differentiated, specimens (%) (10^−6 M, 35 specimens): 15 (43) | Notochord differentiated, specimens (%) (10^−6 M, 35 specimens): 30 (86) | Pancreas differentiated, specimens (%) (10^−6 M, 35 specimens): 1 (3) | Pharyngeal epithelium differentiated, specimens (%) (10^−6 M, 35 specimens): 34 (97) | Pronephros differentiated, specimens (%) (10^−6 M, 35 specimens): 0 (0) | Yolk-rich cell differentiated, specimens (%) (10^−6 M, 35 specimens): 31 (89) | Atypical epidermis differentiated, specimens (%) (10^−7 M, 32 specimens): 0 (0) | Cartilage differentiated, specimens (%) (10^−7 M, 32 specimens): 16 (50) | Cement gland differentiated, specimens (%) (10^−7 M, 32 specimens): 0 (0) | Coelomic epithelium differentiated, specimens (%) (10^−7 M, 32 specimens): 5 (16) | Ear vesicle differentiated, specimens (%) (10^−7 M, 32 specimens): 0 (0) | Epidermis differentiated, specimens (%) (10^−7 M, 32 specimens): 31 (97) | Eye or its fragments differentiated, specimens (%) (10^−7 M, 32 specimens): 0 (0) | Gastric gland differentiated, specimens (%) (10^−7 M, 32 specimens): 0 (0) | Hemocyte differentiated, specimens (%) (10^−7 M, 32 specimens): 0 (0) | Intestinal epithelium differentiated, specimens (%) (10^−7 M, 32 specimens): 1 (3) | Mesenchyme differentiated, specimens (%) (10^−7 M, 32 specimens): 32 (100) | Muscle differentiated, specimens (%) (10^−7 M, 32 specimens): 24 (75) | Neural tissue differentiated, specimens (%) (10^−7 M, 32 specimens): 9 (28) | Notochord differentiated, specimens (%) (10^−7 M, 32 specimens): 31 (97) | Pancreas differentiated, specimens (%) (10^−7 M, 32 specimens): 0 (0) | Pharyngeal epithelium differentiated, specimens (%) (10^−7 M, 32 specimens): 30 (94) | Pronephros differentiated, specimens (%) (10^−7 M, 32 specimens): 0 (0) | Yolk-rich cell differentiated, specimens (%) (10^−7 M, 32 specimens): 24 (75) | Atypical epidermis differentiated, specimens (%) (10^−8 M, 20 specimens): 0 (0) | Cartilage differentiated, specimens (%) (10^−8 M, 20 specimens): 5 (25) | Cement gland differentiated, specimens (%) (10^−8 M, 20 specimens): 0 (0) | Coelomic epithelium differentiated, specimens (%) (10^−8 M, 20 specimens): 3 (15) | Ear vesicle differentiated, specimens (%) (10^−8 M, 20 specimens): 0 (0) | Epidermis differentiated, specimens (%) (10^−8 M, 20 specimens): 20 (100) | Eye or its fragments differentiated, specimens (%) (10^−8 M, 20 specimens): 0 (0) | Gastric gland differentiated, specimens (%) (10^−8 M, 20 specimens): 0 (0) | Hemocyte differentiated, specimens (%) (10^−8 M, 20 specimens): 0 (0) | Intestinal epithelium differentiated, specimens (%) (10^−8 M, 20 specimens): 0 (0) | Mesenchyme differentiated, specimens (%) (10^−8 M, 20 specimens): 20 (100) | Muscle differentiated, specimens (%) (10^−8 M, 20 specimens): 17 (85) | Neural tissue differentiated, specimens (%) (10^−8 M, 20 specimens): 2 (10) | Notochord differentiated, specimens (%) (10^−8 M, 20 specimens): 18 (90) | Pancreas differentiated, specimens (%) (10^−8 M, 20 specimens): 2 (10) | Pharyngeal epithelium differentiated, specimens (%) (10^−8 M, 20 specimens): 17 (85) | Pronephros differentiated, specimens (%) (10^−8 M, 20 specimens): 0 (0) | Yolk-rich cell differentiated, specimens (%) (10^−8 M, 20 specimens): 16 (80)
